Experiments:
Assay type in all cases: in vivo
[1] = tested on: Echinochloa oryzacola Vasing.; assay: Test Example 1: herbicidal activity, application before weed generation in submerged conditions; settings: Application herbicide amount 320 g/ha; Seventeenth Table
Summary of the method: (§1)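 Rating, on a six-step scale from almost no effect (0) to almost completely withered (5), was made three weeks after pre-emergence treatment. Treatment was surface application to flooded pots at g/ha rates, with plants kept at 25° C. to 30° C.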

Monochoria vaginalis = assay: as above; settings: Application herbicide amount 320 g/ha; Seventeenth Table
Summary of the method: as §1

Scirpus juncoides = assay: as above; settings: Application herbicide amount 320 g/ha; Seventeenth Table
Summary of the method: as §1

[2] = tested on: transplanted Oryza sativa; assay: Test Example 1: effect on crop, application before weed generation in submerged conditions; settings: Application herbicide amount 320 g/ha; Seventeenth Table
Summary of the method: as §1

Cyperus difformis = assay: Test Example 3: herbicidal effect by application to foliage (Wagner pot, water depth 0.1-0.5 cm); settings: Nineteenth Table; application to foliage; application herbicide amount 320 g/ha
Summary of the method: (§2)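 Alluvial soil in 1/10000 are Wagner pots, sown and grown 14 days in a 25–30 °C greenhouse. An emulsifiable concentrate diluted in water to the set dose (g/ha) was sprayed on stems and leaves. Effect scored three weeks later on a 0–5 scale: 5 = ≥90% herbicidal ratio, 0 = ≤5%.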

[3] = tested on: Echinochloa crus-galli var. crus-galli; assay: as above; settings: Nineteenth Table; application to foliage; application herbicide amount 320 g/ha
Summary of the method: as §2

Leptochloa chinensis = assay: as above; settings: Nineteenth Table; application to foliage; application herbicide amount 320 g/ha
Summary of the method: as §2

[4] = tested on: directly sowed Oryza sativa; assay: Test Example 3: effect on crop by application to foliage (Wagner pot, water depth 0.1-0.5 cm); settings: Nineteenth Table; application to foliage; application herbicide amount 320 g/ha
Summary of the method: as §2

Setaria viridis = assay: Test Example 4: herbicidal effect by application to foliage (diluvial soil, plastic box); settings: for G: herbicidal effect on Setaria viridis: application to foliage, application herbicide amount 320 g/ha; for G (Setaria viridis) herbicidal effect grade: foliage application
Summary of the method: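 Emulsion-formulated compound, diluted to a predetermined g/ha dose, applied by small sprayer to leaves and stems of 14-day-old seedlings grown in sterilized diluvial soil. Effect rated on 0–5 herbicidal-ratio scale three weeks on.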

[5] = Application herbicide amount 320 g/ha

Structure (SMILES) | A: Echinochloa oryzicola Vasing. (herbicidal effect grade) [1] | C: Monochoria vaginalis (herbicidal effect grade) (Monochoria vaginalis) | B: Scirpus juncoides (herbicidal effect grade) (Scirpus juncoides) | a: transplanted Oryza sativa (effect on crop grade) [2] | E (herbicidal effect grade) (Cyperus difformis) | H (herbicidal effect grade) [3] | D (herbicidal effect grade) (Leptochloa chinensis) | b (effect on crop grade) [4] | G: herbicidal effect on Setaria viridis (Setaria viridis) | G (Setaria viridis) herbicidal effect grade (Setaria viridis; 320 g/ha) | G (Setaria viridis; [5]) | G (Setaria viridis) herbicidal effect grade (Setaria viridis; [5])
COCc1nnc2c(C(=O)Nc3nnnn3C)ccc(C(F)(F)F)n12 [2-010, 3-(Methoxymethyl)-N-(1-methyl-1H-tetrazol-5-yl)-5-(trifluoromethyl)-[1,2,4]triazol o[4,3-a]pyridine-8-carboxamide] | 5 (Herbicidal ratio of 90% or more (almost completely withered)) | 4 (Herbicidal ratio of 70% or more and less than 90%) | 5 (Herbicidal ratio of 90% or more (almost completely withered)) | 4 (Herbicidal ratio of 70% or more and less than 90%) | 5 (Herbicidal ratio of 90% or more (almost completely withered)) | 5 (Herbicidal ratio of 90% or more (almost completely withered)) | 5 (Herbicidal ratio of 90% or more (almost completely withered)) | 5 (Herbicidal ratio of 90% or more (almost completely withered)) | 3 (Herbicidal ratio of 40% or more and less than 70%) |  |  | 
Cn1nnnc1NC(=O)c1ccc(C(F)(F)F)n2c(CSCC(F)(F)F)nnc12 [2-030] | 5 (Herbicidal ratio of 90% or more (almost completely withered)) | 4 (Herbicidal ratio of 70% or more and less than 90%) | 4 (Herbicidal ratio of 70% or more and less than 90%) | 3 (Herbicidal ratio of 40% or more and less than 70%) | 4 (Herbicidal ratio of 70% or more and less than 90%) | 4 (Herbicidal ratio of 70% or more and less than 90%) | 5 (Herbicidal ratio of 90% or more (almost completely withered)) | 5 (Herbicidal ratio of 90% or more (almost completely withered)) |  | 5 (Herbicidal ratio of 90% or more (almost completely withered)) |  | 
COCCOCc1nnc2c(C(=O)Nc3nnnn3C)ccc(C(F)(F)F)n12 [2-014] | 5 (Herbicidal ratio of 90% or more (almost completely withered)) | 5 (Herbicidal ratio of 90% or more (almost completely withered)) | 5 (Herbicidal ratio of 90% or more (almost completely withered)) | 4 (Herbicidal ratio of 70% or more and less than 90%) | 5 (Herbicidal ratio of 90% or more (almost completely withered)) | 5 (Herbicidal ratio of 90% or more (almost completely withered)) | 5 (Herbicidal ratio of 90% or more (almost completely withered)) | 5 (Herbicidal ratio of 90% or more (almost completely withered)) | 5 (Herbicidal ratio of 90% or more (almost completely withered)) |  |  | 
Cn1nnnc1NC(=O)c1ccc(C(F)(F)F)n2c(C(C)(C)C)nnc12 [2-027] | 5 (Herbicidal ratio of 90% or more (almost completely withered)) | 5 (Herbicidal ratio of 90% or more (almost completely withered)) | 5 (Herbicidal ratio of 90% or more (almost completely withered)) | 4 (Herbicidal ratio of 70% or more and less than 90%) | 5 (Herbicidal ratio of 90% or more (almost completely withered)) | 5 (Herbicidal ratio of 90% or more (almost completely withered)) | 5 (Herbicidal ratio of 90% or more (almost completely withered)) | 5 (Herbicidal ratio of 90% or more (almost completely withered)) | 5 (Herbicidal ratio of 90% or more (almost completely withered)) |  |  | 
COCCSc1nnc2c(C(=O)Nc3nnc(C)o3)ccc(C(F)(F)F)n12 [1-063] | 5 (Herbicidal ratio of 90% or more (almost completely withered)) | 3 (Herbicidal ratio of 40% or more and less than 70%) | 4 (Herbicidal ratio of 70% or more and less than 90%) | 0 (Herbicidal ratio of 5% or less (almost no effect)) | 5 (Herbicidal ratio of 90% or more (almost completely withered)) | 5 (Herbicidal ratio of 90% or more (almost completely withered)) | 5 (Herbicidal ratio of 90% or more (almost completely withered)) | 2 (Herbicidal ratio of 20% or more and less than 40%) |  |  | 5 (Herbicidal ratio of 90% or more (almost completely withered)) | 
CN(C)c1nnc2c(C(=O)Nc3nnco3)ccc(C(F)(F)F)n12 [1-103] | 5 (Herbicidal ratio of 90% or more (almost completely withered)) | 4 (Herbicidal ratio of 70% or more and less than 90%) | 4 (Herbicidal ratio of 70% or more and less than 90%) | 3 (Herbicidal ratio of 40% or more and less than 70%) | 5 (Herbicidal ratio of 90% or more (almost completely withered)) | 5 (Herbicidal ratio of 90% or more (almost completely withered)) | 5 (Herbicidal ratio of 90% or more (almost completely withered)) | 4 (Herbicidal ratio of 70% or more and less than 90%) |  |  | 5 (Herbicidal ratio of 90% or more (almost completely withered)) | 
Cc1nnc(NC(=O)c2ccc(C(F)(F)F)n3c(N(C)C(C)C)nnc23)o1 [1-132] | 5 (Herbicidal ratio of 90% or more (almost completely withered)) | 4 (Herbicidal ratio of 70% or more and less than 90%) | 4 (Herbicidal ratio of 70% or more and less than 90%) | 2 (Herbicidal ratio of 20% or more and less than 40%) | 4 (Herbicidal ratio of 70% or more and less than 90%) | 5 (Herbicidal ratio of 90% or more (almost completely withered)) | 5 (Herbicidal ratio of 90% or more (almost completely withered)) | 3 (Herbicidal ratio of 40% or more and less than 70%) |  |  |  | 3 (Herbicidal ratio of 40% or more and less than 70%)
CC(=O)OCc1nnc2c(C(=O)Nc3nnc(C)o3)ccc(C(F)(F)F)n12 [1-062] | 3 (Herbicidal ratio of 40% or more and less than 70%) | 1 (Herbicidal ratio of 5% or more and less than 20%) | 2 (Herbicidal ratio of 20% or more and less than 40%) | 0 (Herbicidal ratio of 5% or less (almost no effect)) | 4 (Herbicidal ratio of 70% or more and less than 90%) | 5 (Herbicidal ratio of 90% or more (almost completely withered)) | 4 (Herbicidal ratio of 70% or more and less than 90%) | 2 (Herbicidal ratio of 20% or more and less than 40%) |  |  | 3 (Herbicidal ratio of 40% or more and less than 70%) | 
Cc1nnc(NC(=O)c2ccc(C(F)(F)F)n3c(SCC(F)(F)F)nnc23)o1 [1-124] | 3 (Herbicidal ratio of 40% or more and less than 70%) | 1 (Herbicidal ratio of 5% or more and less than 20%) | 3 (Herbicidal ratio of 40% or more and less than 70%) | 0 (Herbicidal ratio of 5% or less (almost no effect)) | 4 (Herbicidal ratio of 70% or more and less than 90%) | 4 (Herbicidal ratio of 70% or more and less than 90%) | 4 (Herbicidal ratio of 70% or more and less than 90%) | 0 (Herbicidal ratio of 5% or less (almost no effect)) |  |  |  | 3 (Herbicidal ratio of 40% or more and less than 70%)
CC(C)[S+]([O-])c1nnc2c(C(=O)Nc3nnnn3C)ccc(C(F)(F)F)n12 (stereo not drawn) [2-032] | 5 (Herbicidal ratio of 90% or more (almost completely withered)) | 5 (Herbicidal ratio of 90% or more (almost completely withered)) | 5 (Herbicidal ratio of 90% or more (almost completely withered)) | 5 (Herbicidal ratio of 90% or more (almost completely withered)) | 5 (Herbicidal ratio of 90% or more (almost completely withered)) | 5 (Herbicidal ratio of 90% or more (almost completely withered)) | 5 (Herbicidal ratio of 90% or more (almost completely withered)) | 5 (Herbicidal ratio of 90% or more (almost completely withered)) |  | 5 (Herbicidal ratio of 90% or more (almost completely withered)) |  | 
